In PubChem BioAssay AID248 (DTP/NCI, 2004):
Toxic doses and inconclusive results are not listed.

System: L1210 leukemia ip in BDF1 mice, survival T/C
Assay: NCI In Vivo Anticancer Drug Screen. Data for tumor model L1210 Leukemia (intraperitoneal) in B6D2F1 (BDF1) mice
Conditions: endpoint: mean survival time, higher = longer survival
How it was run: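 Survival endpoint. Drug-treated group vs vehicle group, expressed as T divided by C. Tumor passaged by transplantation.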

[1] = dose: 100.0 mg/kg/injection, schedule: Q01DX009 (ip), vehicle: Klucel (hydroxypropylcellulose) (HPC)
[2] = dose: 200.0 mg/kg/injection, schedule: Q01DX009 (ip), vehicle: Klucel (hydroxypropylcellulose) (HPC)
[3] = dose: 200.0 mg/kg/injection, schedule: Q04DX003 (ip), vehicle: Klucel (hydroxypropylcellulose) (HPC)
[4] = dose: 400.0 mg/kg/injection, schedule: Q01DX009 (ip), vehicle: Klucel (hydroxypropylcellulose) (HPC)
[5] = dose: 400.0 mg/kg/injection, schedule: Q04DX003 (ip), vehicle: Klucel (hydroxypropylcellulose) (HPC)
[6] = dose: 100.0 mg/kg/injection, schedule: Q01DX001 (ip), vehicle: saline
[7] = dose: 100.0 mg/kg/injection, schedule: Q01DX009 (ip), vehicle: acetone
[8] = dose: 100.0 mg/kg/injection, schedule: Q04DX003 (ip), vehicle: saline
[9] = dose: 200.0 mg/kg/injection, schedule: Q01DX001 (ip), vehicle: saline
[10] = dose: 200.0 mg/kg/injection, schedule: Q01DX009 (ip), vehicle: acetone
[11] = dose: 200.0 mg/kg/injection, schedule: Q04DX003 (ip), vehicle: saline
[12] = dose: 400.0 mg/kg/injection, schedule: Q01DX001 (ip), vehicle: saline
[13] = dose: 400.0 mg/kg/injection, schedule: Q01DX009 (ip), vehicle: acetone
[14] = dose: 400.0 mg/kg/injection, schedule: Q04DX003 (ip), vehicle: saline
[15] = dose: 100.0 mg/kg/injection, schedule: Q01DX009 (ip), vehicle: saline
[16] = dose: 100.0 mg/kg/injection, schedule: Q04DX003 (ip), vehicle: Klucel (hydroxypropylcellulose) (HPC)
[17] = dose: 100.0 mg/kg/injection, schedule: Q04DX003 (ip), vehicle: saline with Tween-80
[18] = dose: 100.0 mg/kg/injection, schedule: Q01DX005 (ip), vehicle: saline
[19] = dose: 200.0 mg/kg/injection, schedule: Q01DX005 (ip), vehicle: saline

In the case of CCC(CC)(COS(=O)(=O)c1ccc(C)cc1)COS(=O)(=O)c1ccc(C)cc1, the T/C [1] is reported as 93 % of control, the T/C [2] is reported as 89 % of control and the T/C [3] is reported as 94 % of control. The T/C [4] was 88 % of control and the T/C [5] was 96 % of control.
With CC(=O)Nc1ccc(/C=C(\C#N)c2ccc([N+](=O)[O-])cc2)cc1 the T/C (dose: 100.0 mg/kg/injection, schedule: Q04DX002 (ip), vehicle: gum acacia) was 95 % of control, the T/C (dose: 200.0 mg/kg/injection, schedule: Q04DX002 (ip), vehicle: gum acacia) was 103 % of control and the T/C (dose: 400.0 mg/kg/injection, schedule: Q04DX002 (ip), vehicle: gum acacia) was 95 % of control.
In the case of CCc1ccc(/C(C#N)=C/c2cccc3ccccc23)cc1, the T/C (dose: 100.0 mg/kg/injection, schedule: Q04DX002 (ip), vehicle: alcohol) is reported as 97 % of control, the T/C (dose: 200.0 mg/kg/injection, schedule: Q04DX002 (ip), vehicle: alcohol) is reported as 105 % of control and the T/C (dose: 400.0 mg/kg/injection, schedule: Q04DX002 (ip), vehicle: alcohol) is reported as 91 % of control.
In the case of COc1ccc(C=Nc2ccnc3cc(OC)c(OC)cc23)cc1OC, the T/C (dose: 100.0 mg/kg/injection, schedule: Q01DX001 (ip), vehicle: saline with Tween-80) is reported as 93 % of control, the T/C (dose: 200.0 mg/kg/injection, schedule: Q01DX001 (ip), vehicle: saline with Tween-80) is reported as 104 % of control and the T/C (dose: 400.0 mg/kg/injection, schedule: Q01DX001 (ip), vehicle: saline with Tween-80) is reported as 102 % of control.
For COC(=O)C1=C(C(=O)OC)C2(OC(C)=O)C=C(OC(C)=O)C1C(C)(C)C2 (centres undefined), the T/C [6] was 94 % of control, the T/C [7] was 93 % of control and the T/C [8] was 111 % of control. For the same molecule, the T/C [9] was 102 % of control, the T/C [10] was 90 % of control and the T/C [11] was 103 % of control. The T/C [12] was 102 % of control, the T/C [13] was 88 % of control and the T/C [14] was 104 % of control.
In the case of O=C(O)c1cc(I)cc(I)c1I, the T/C (dose: 100.0 mg/kg/injection, schedule: Q04DX002 (ip), vehicle: Klucel (hydroxypropylcellulose) (HPC)) is reported as 105 % of control, the T/C (dose: 200.0 mg/kg/injection, schedule: Q04DX002 (ip), vehicle: Klucel (hydroxypropylcellulose) (HPC)) is reported as 88 % of control and the T/C (dose: 400.0 mg/kg/injection, schedule: Q04DX002 (ip), vehicle: Klucel (hydroxypropylcellulose) (HPC)) is reported as 102 % of control.
With CN(/N=C/c1ccccc1)C(=S)Nc1ccccc1 the T/C (dose: 62.5 mg/kg/injection, schedule: Q04DX003 (ip), vehicle: Klucel (hydroxypropylcellulose) (HPC)) was 100 % of control and the T/C (dose: 250.0 mg/kg/injection, schedule: Q04DX003 (ip), vehicle: Klucel (hydroxypropylcellulose) (HPC)) was 103 % of control.
In the case of COC(=O)C1(C(=O)OC)C2CC(C)=C(C)CC21 (centres undefined), the T/C (dose: 25.0 mg/kg/injection, schedule: Q01DX009 (ip), vehicle: saline) is reported as 109 % of control, the T/C (dose: 50.0 mg/kg/injection, schedule: Q01DX009 (ip), vehicle: saline) is reported as 93 % of control and the T/C [7] is reported as 90 % of control. The T/C [15] was 104 % of control, the T/C [10] was 94 % of control and the T/C [13] was 87 % of control.
In the case of Brc1ccc(N=Nc2ccccc2)cc1, the T/C [16] is reported as 103 % of control, the T/C [3] is reported as 97 % of control and the T/C [5] is reported as 103 % of control.
With CC(C)C1=CC23CCC4C(C)(C(=O)O)CCCC4(C)C2CC1OO3 (centres undefined) the T/C (dose: 100.0 mg/kg/injection, schedule: Q01DX009 (ip), vehicle: saline with Tween-80) was 100 % of control, the T/C (dose: 200.0 mg/kg/injection, schedule: Q01DX009 (ip), vehicle: saline with Tween-80) was 97 % of control and the T/C (dose: 400.0 mg/kg/injection, schedule: Q01DX009 (ip), vehicle: saline with Tween-80) was 97 % of control.
Cc1ccc(S(=O)(=O)N/N=C/N(C)C)cc1 was tested, and the T/C [1] was 91 % of control, the T/C [16] was 102 % of control and the T/C [2] was 98 % of control. For the same molecule, the T/C [3] was 103 % of control, the T/C [4] was 96 % of control and the T/C [5] was 97 % of control.
CC(Br)(C(=O)O)C(Br)c1ccccc1 (centres undefined) was tested, and the T/C [17] was 90 % of control, the T/C (dose: 200.0 mg/kg/injection, schedule: Q04DX003 (ip), vehicle: saline with Tween-80) was 95 % of control and the T/C (dose: 400.0 mg/kg/injection, schedule: Q04DX003 (ip), vehicle: saline with Tween-80) was 88 % of control.
CCC(CC)(Cc1ccccc1)C(=O)NC(=O)NOC was tested, and the T/C (dose: 100.0 mg/kg/injection, schedule: Q01DX Z (ip), vehicle: methylcellulose (MC)) was 98 % of control and the T/C (dose: 200.0 mg/kg/injection, schedule: Q01DX Z (ip), vehicle: methylcellulose (MC)) was 96 % of control.
With O=[N+]([O-])c1ccc(Cl)c(OCCBr)c1 the T/C (dose: 100.0 mg/kg/injection, schedule: Q01DX009 (ip), vehicle: gum acacia) was 95 % of control, the T/C (dose: 200.0 mg/kg/injection, schedule: Q01DX009 (ip), vehicle: gum acacia) was 94 % of control and the T/C (dose: 400.0 mg/kg/injection, schedule: Q01DX009 (ip), vehicle: gum acacia) was 89 % of control.
With Oc1ccccc1OCCOCCCl the T/C (dose: 100.0 mg/kg/injection, schedule: Q04DX002 (sc), vehicle: olive oil, sesame oil, peanut oil) was 93 % of control, the T/C (dose: 200.0 mg/kg/injection, schedule: Q04DX002 (sc), vehicle: olive oil, sesame oil, peanut oil) was 101 % of control and the T/C (dose: 400.0 mg/kg/injection, schedule: Q04DX002 (sc), vehicle: olive oil, sesame oil, peanut oil) was 246 % of control.
For C=CCc1cn(C2OC(COC(=O)c3ccc(Cl)cc3)C(OC(=O)c3ccc(Cl)cc3)C2O)c(=O)[nH]c1=O (centres undefined), the T/C [18] was 90 % of control and the T/C [19] was 91 % of control.
For CC(C)(C)c1cc(C[N+](C)(C)C)cc(C(C)(C)C)n1, the T/C (dose: 50.0 mg/kg/injection, schedule: Q04DX002 (ip), vehicle: saline with Tween-80) was 92 % of control and the T/C (dose: 100.0 mg/kg/injection, schedule: Q04DX002 (ip), vehicle: saline with Tween-80) was 99 % of control.
COc1ccc2c(c1)CC/C(=C\c1ccccn1)C2=O was tested, and the T/C (dose: 100.0 mg/kg/injection, schedule: Q04DX003 (ip), vehicle: carboxymethylcellulose (CMC)) was 98 % of control, the T/C (dose: 200.0 mg/kg/injection, schedule: Q04DX003 (ip), vehicle: carboxymethylcellulose (CMC)) was 97 % of control and the T/C (dose: 400.0 mg/kg/injection, schedule: Q04DX003 (ip), vehicle: carboxymethylcellulose (CMC)) was 98 % of control.
With CCCCN(CCC#N)CCCC the T/C (dose: 25.0 mg/kg/injection, schedule: Q04DX003 (ip), vehicle: saline with Tween-80) was 111 % of control, the T/C (dose: 29.5 mg/kg/injection, schedule: Q01DX009 (ip), vehicle: saline with Tween-80) was 107 % of control and the T/C (dose: 50.0 mg/kg/injection, schedule: Q04DX003 (ip), vehicle: saline with Tween-80) was 105 % of control. The T/C (dose: 59.0 mg/kg/injection, schedule: Q01DX009 (ip), vehicle: saline with Tween-80) was 107 % of control, the T/C [17] was 97 % of control and the T/C (dose: 118.0 mg/kg/injection, schedule: Q01DX009 (ip), vehicle: saline with Tween-80) was 108 % of control.
CC1(C)OC(C)(C)C1(O)C(=O)O was tested, and the T/C [6] was 97 % of control, the T/C [9] was 101 % of control and the T/C [12] was 105 % of control.
For O=C(CCCC(=O)N/N=C/c1cc(Cl)ccc1[N+](=O)[O-])N/N=C\c1cc(Cl)ccc1[N+](=O)[O-], the T/C (dose: 50.0 mg/kg/injection, schedule: Q01DX001 (ip), vehicle: saline) was 98 % of control, the T/C [6] was 90 % of control and the T/C [9] was 95 % of control. For the same molecule, the T/C [12] was 98 % of control.
For Cc1cc(C)c(C(=O)C(=S)N2CCOCC2)c(C)c1, the T/C [10] was 90 % of control and the T/C [13] was 96 % of control.
NNc1nc(Cl)cc2c1ncn2C1OC(CO)C(O)C1O (centres undefined) was tested, and the T/C [18] was 98 % of control and the T/C [19] was 113 % of control.
CC(C)(C)O[Si](C)(C)CCl was tested, and the T/C (dose: 100.0 mg/kg/injection, schedule: Q01DX001 (ip), vehicle: carboxymethylcellulose (CMC)) was 92 % of control, the T/C (dose: 200.0 mg/kg/injection, schedule: Q01DX001 (ip), vehicle: carboxymethylcellulose (CMC)) was 92 % of control and the T/C (dose: 400.0 mg/kg/injection, schedule: Q01DX001 (ip), vehicle: carboxymethylcellulose (CMC)) was 92 % of control.
COc1ccc(OC)c2c1C(=O)CC2C (centres undefined) was tested, and the T/C [15] was 100 % of control, the T/C [8] was 96 % of control and the T/C (dose: 200.0 mg/kg/injection, schedule: Q01DX009 (ip), vehicle: saline) was 96 % of control. The T/C [11] was 96 % of control and the T/C [14] was 91 % of control.
